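Protocol summary: plate cells (96-well), add compound at 5 concentrations, incubate 48 h, interpolate endpoints linearly. GI50 marks 50% less growth.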 The source made the active and inactive calls. Rule as the data show it: active = GI50 up to about 1.1 µM and inactive = higher.
How the values were obtained:
Experiment in all cases: NCI-60 cell line screen, 48 h
SN12C = system: SN12C
OVCAR-8 = system: OVCAR-8
LOX IMVI = system: LOX IMVI
SK-MEL-2 = system: SK-MEL-2
K562 = system: K562
SK-OV-3 = system: SK-OV-3
EKVX = system: EKVX
MDA-MB-435 = system: MDA-MB-435
Hs-578T = system: Hs-578T
T47D = system: T47D
SNB-75 = system: SNB-75
OVCAR-5 = system: OVCAR-5
HT-29 = system: HT-29
MCF7 = system: MCF7
NCI-H226 = system: NCI-H226
PC-3 = system: PC-3
HCT-15 = system: HCT-15
SW-620 = system: SW-620

Compound	GI50 (SN12C)	GI50 (OVCAR-8)	GI50 (LOX IMVI)	GI50 (SK-MEL-2)	GI50 (K562)	GI50 (SK-OV-3)	GI50 (EKVX)	GI50 (MDA-MB-435)	GI50 (Hs-578T)	GI50 (T47D)	GI50 (SNB-75)	GI50 (OVCAR-5)	GI50 (HT-29)	GI50 (MCF7)	GI50 (NCI-H226)	GI50 (PC-3)	GI50 (HCT-15)	GI50 (SW-620)
Cn1c(NNc2ccccc2)cc(=O)[nH]c1=O	> 100 µM (inactive)	29.8 µM (inactive)	20 µM (inactive)	3.63 µM (inactive)	36.7 µM (inactive)	72.6 µM (inactive)	> 100 µM (inactive)	20.9 µM (inactive)	> 100 µM (inactive)	30.9 µM (inactive)	81.7 µM (inactive)	> 100 µM (inactive)	86.9 µM (inactive)	33.8 µM (inactive)	> 100 µM (inactive)	38.6 µM (inactive)	16.3 µM	62.1 µM (inactive)
Nc1nc(Cl)cc(NCC2(CO)CCCCC2)n1	81.1 µM (inactive)	> 100 µM (inactive)	49.3 µM (inactive)	> 100 µM (inactive)	94 µM (inactive)	> 100 µM (inactive)	67 µM (inactive)	> 100 µM (inactive)	> 100 µM (inactive)	38.5 µM (inactive)	> 100 µM (inactive)	> 100 µM (inactive)	> 100 µM (inactive)	97.9 µM (inactive)	> 100 µM (inactive)	83.4 µM (inactive)	> 100 µM	> 100 µM (inactive)
CCOc1cc(C2SCC(=O)N2c2nc3cc4sc(N5C(=O)CSC5c5ccc(O)c(OCC)c5)nc4cc3s2)ccc1O (stereo not drawn)	> 31.5 µM (inactive)	> 68.7 µM (inactive)	38.3 µM (inactive)	> 100 µM (inactive)	> 64.6 µM (inactive)	> 100 µM (inactive)	67.3 µM (inactive)	29.9 µM (inactive)	> 47.1 µM (inactive)	40.2 µM (inactive)	> 100 µM (inactive)	> 100 µM (inactive)	18.4 µM (inactive)	9.86 µM (inactive)	23.6 µM (inactive)	58.5 µM (inactive)	8.47 µM	27.1 µM (inactive)
O=C1C(c2ccccc2)=C(c2ccccc2)C1(Cl)Cl	2.87 µM (inactive)	2.64 µM (inactive)	1.93 µM (inactive)	2.72 µM (inactive)	1.91 µM (inactive)	15.8 µM (inactive)	5.04 µM (inactive)	2.43 µM (inactive)	3.56 µM (inactive)	3.18 µM (inactive)	4.95 µM (inactive)	7.82 µM (inactive)	3.15 µM (inactive)	2.61 µM (inactive)	3.07 µM (inactive)	4.37 µM (inactive)	2.07 µM	2.75 µM (inactive)
CC(C)OCC1CC(CC(=O)Nc2nncs2)C(=O)O1 (stereo not drawn)	> 100 µM (inactive)	> 100 µM (inactive)	> 100 µM (inactive)	> 100 µM (inactive)	> 100 µM (inactive)	> 100 µM (inactive)	> 100 µM (inactive)	> 100 µM (inactive)	> 100 µM (inactive)	> 100 µM (inactive)	> 100 µM (inactive)	> 100 µM (inactive)	> 100 µM (inactive)	> 100 µM (inactive)	> 100 µM (inactive)	> 100 µM (inactive)	> 100 µM	> 100 µM (inactive)
C=CCSc1nc2ccccc2c(=O)n1Cc1ccco1	> 100 µM (inactive)	> 100 µM (inactive)	> 100 µM (inactive)	> 100 µM (inactive)	> 100 µM (inactive)	> 100 µM (inactive)	> 100 µM (inactive)	> 100 µM (inactive)	> 100 µM (inactive)	29.1 µM (inactive)	89.1 µM (inactive)	> 100 µM (inactive)	50.1 µM (inactive)	52.2 µM (inactive)	> 100 µM (inactive)	> 100 µM (inactive)	64.1 µM	> 100 µM (inactive)
CSC(=N/C=C/c1ccccc1)SC	> 100 µM (inactive)	> 100 µM (inactive)	50.5 µM (inactive)	> 100 µM (inactive)	72.8 µM (inactive)	> 100 µM (inactive)	> 100 µM (inactive)	76.7 µM (inactive)	68.1 µM (inactive)	> 100 µM (inactive)	> 100 µM (inactive)	> 100 µM (inactive)	> 100 µM (inactive)	> 100 µM (inactive)	> 100 µM (inactive)	64.3 µM (inactive)	> 100 µM	> 100 µM (inactive)
NS(=O)(=O)c1ccc(/N=N/c2cc3ccccc3c(C(=O)O)c2O)cc1	> 78.3 µM (inactive)	> 56.8 µM (inactive)	> 54.5 µM (inactive)	> 45.1 µM (inactive)	> 100 µM (inactive)	> 66.4 µM (inactive)	> 100 µM (inactive)	> 55.8 µM (inactive)	> 67.3 µM (inactive)	> 54.1 µM (inactive)	> 60.7 µM (inactive)	> 54.3 µM (inactive)	> 55.7 µM (inactive)	2.68 µM (inactive)	> 100 µM (inactive)	> 48.3 µM (inactive)	> 49.7 µM	> 41.8 µM (inactive)
COC(=O)c1ccccc1CC1Cc2cccc(C)c2C1=O (stereo not drawn)	50.5 µM (inactive)	35 µM (inactive)	22.4 µM (inactive)	21.8 µM (inactive)	22.3 µM (inactive)	38.9 µM (inactive)	11.7 µM (inactive)	23.3 µM (inactive)	38.3 µM (inactive)	25.8 µM (inactive)	22.7 µM (inactive)	57.5 µM (inactive)	22.9 µM (inactive)	26.6 µM (inactive)	27 µM (inactive)	24 µM (inactive)	24 µM	42.4 µM (inactive)
CCOC(=O)NNC(=O)NCc1ccccc1CNC(=O)NNC(=O)OCC	> 100 µM (inactive)	> 100 µM (inactive)	> 100 µM (inactive)	> 100 µM (inactive)	> 100 µM (inactive)	> 100 µM (inactive)	> 100 µM (inactive)	> 100 µM (inactive)	> 100 µM (inactive)	> 100 µM (inactive)	> 100 µM (inactive)	> 100 µM (inactive)	> 100 µM (inactive)	> 100 µM (inactive)	> 100 µM (inactive)	> 100 µM (inactive)	> 100 µM	> 100 µM (inactive)
CC(C)/C(Cl)=N/OC(=O)Nc1ccc(OC(F)(F)F)cc1	16.4 µM (inactive)	18.1 µM (inactive)	2.1 µM (inactive)	14.2 µM (inactive)	1.76 µM (inactive)	17.6 µM (inactive)	8.17 µM (inactive)	12.6 µM (inactive)	15.8 µM (inactive)	8.55 µM (inactive)	15.6 µM (inactive)	15.6 µM (inactive)	18.6 µM (inactive)	13.5 µM (inactive)	11.1 µM (inactive)	16.1 µM (inactive)	6.12 µM	1.77 µM (inactive)
CCCC1NC(=O)C(CC(C)C)NC(=O)c2cccc(n2)C(=O)NC(CC(C)C)C(=O)NC(CCC)C(=O)NC(C(=O)OC)CCCCNC1=O (stereo not drawn)	34.4 µM (inactive)	32.8 µM (inactive)	19.2 µM (inactive)	55 µM (inactive)	24 µM (inactive)	27.2 µM (inactive)	20.3 µM (inactive)	35.4 µM (inactive)	71.1 µM (inactive)	55 µM (inactive)	16.5 µM (inactive)	> 100 µM (inactive)	30.6 µM (inactive)	25.9 µM (inactive)	25.6 µM (inactive)	25.3 µM (inactive)	> 100 µM	34.8 µM (inactive)
CCOP(=O)(OCC)C(C)(CC)N/C(=N\C1=NC(C(F)(F)F)(C(F)(F)F)N=C(C(F)(F)F)O1)NC(NC(C)=O)(C(F)(F)F)C(F)(F)F (stereo not drawn)	34.1 µM (inactive)	36.6 µM (inactive)	32.2 µM (inactive)	25.5 µM (inactive)	16.9 µM (inactive)	27.4 µM (inactive)	30.8 µM (inactive)	32.7 µM (inactive)	31.8 µM (inactive)	22.7 µM (inactive)	2.3 µM (inactive)	45 µM (inactive)	20.7 µM (inactive)	21.9 µM (inactive)	22 µM (inactive)	21.2 µM (inactive)	58.5 µM	56.8 µM (inactive)
N/C(=N/O)c1cn(C2OC(CO)C(O)C2O)c2ncnc(NO)c12 (stereo not drawn)	0.0593 µM (active)	0.242 µM (active)	0.123 µM (active)	< 0.0131 µM (active)	0.184 µM (active)	< 0.02 µM (active)	0.422 µM (active)	0.0962 µM (active)	1.01 µM (active)	0.037 µM (active)	0.222 µM (active)	0.656 µM (active)	0.461 µM (active)	0.144 µM (active)	0.34 µM (active)	0.0621 µM (active)	0.184 µM	0.143 µM (active)
Cc1ccc2occ/c(=N\Nc3ccccc3)c2c1	> 100 µM (inactive)	72.9 µM (inactive)	66.2 µM (inactive)	> 100 µM (inactive)	25.2 µM (inactive)	59.6 µM (inactive)	18.6 µM (inactive)	17.9 µM (inactive)	65.3 µM (inactive)	1.33 µM (inactive)	24.3 µM (inactive)	59.4 µM (inactive)	23.9 µM (inactive)	40.2 µM (inactive)	29.9 µM (inactive)	63.1 µM (inactive)	39.9 µM	> 100 µM (inactive)
O=C1NC(=O)C(c2c[nH]c3cc(Br)ccc23)=C1c1cn(C(c2ccccc2)(c2ccccc2)c2ccccc2)cn1	15.5 µM (inactive)	14.6 µM (inactive)	15.1 µM (inactive)	11.2 µM (inactive)	6.3 µM (inactive)	28.6 µM (inactive)	7.82 µM (inactive)	6.24 µM (inactive)	22.4 µM (inactive)	15.2 µM (inactive)	11.5 µM (inactive)	17.5 µM (inactive)	9.48 µM (inactive)	10.8 µM (inactive)	3.38 µM (inactive)	6.19 µM (inactive)	12.8 µM	15.7 µM (inactive)

— ChEMBL document CHEMBL1201862, “PubChem BioAssay data set” (2004)
